US20190365681A1, “TREATMENT OF CANCER WITH COMBINATIONS OF RXR AGONISTS AND THYROID HORMONES” (Io Therapeutics, Inc., priority 2015, published 2019)
Entries after “also recorded” stand apart in the source; their conditions may differ. Read-outs that look alike come from different tables or passages of the source.

Tests used:
[1] = target: T1, RXRγ (Homo sapiens, UniProt P48443); assay: RXR homodimer transactivation assay (rCRBPII/RXRE-tk-Luc reporter) in CV-1 cells; format: cell-based
T1 construct: an expression construct including a full length RXRα, RXRβ, or RXRγ; expressed in transfected cells; host or cells: CV-1
Procedure: To determine whether a RXR agonist can mediate its effects via RXRα receptor homodimers, RXRβ receptor homodimers, RXRγ receptor homodimers, or any combination thereof, or the corresponding RAR/RXR heterodimers, receptor-mediated transactivation assays were performed. For transactivation assays assessing RXR homodimer signaling, CV-1 cells were transfected with 1) an expression construct including a full length RXRα, RXRβ, or RXRγ; and 2) a rCRBPII/RXRE-tk-Luc reporter construct that included RXR homodimer-specific RXRE/DR1 responsive element linked to a luciferase gene. For transactivation assays assessing RAR/RXR heterodimer signaling, CV-1 cells were transfected with 1) an expression construct comprising a fusion protein including an estrogen receptor (ER) DNA binding domain linked to the ligand binding domain of RARα, RARβ, or RARγ and 2) a ERE-tk-Luc reporter construct that included an estrogen receptor responsive element linked to a luciferase gene. The ER-RAR fusion proteins provided an accurate readout of only the transfected ER-RAR. […] Data are mean values±SE from five independent experiments.

[2] = tested on: LXRβ/RXR; assay: Permissive heterodimer transactivation assay, CV-1 cells, 3x(PLTP/LXRE)-tk-Luc; format: cell-based; settings: 20 hr; relative to T0901317
Text: (§1) For PPARγ: CV-1 cells were transfected with 3×(rAOX/DR1)-tk-Luc reporter gene and an expression vector for PPARγ. For FXR:CV-1 cells were transfected with 3×(IBABP/IRI)-tk-Luc reporter gene and vectors for FXR and RXRα. For LXR:CV-1 cells were transfected with 3×(PLTP/LXRE)-tk-Luc reporter gene with vectors for LXRα or LXRβ. For Nurr1: COS7 cells were transfected with 3×NBRE-tk-luc reporter gene and full length Nurr-1 with or without full-length RXRα plasmid. […] Luciferase data were normalized to co-transfected β-gal activity. Luciferase activity was expressed as percent of maximal activity obtained using specific agonists. Rosiglitazone (PPARγ), GW4064 (FXR), T0901317 (LXR).

[3] = tested on: LXRα/RXR; assay: as above; format: cell-based; settings: 20 hr; relative to T0901317
Text: as §1

[4] = tested on: MCF-7; assay: In vitro growth inhibition, ATP assay ([…]-GLO); format: cell-based
Procedure: (§2) The inhibition of growth was tested in a variety of cancer cell lines.
(§3) All cell lines were obtained from American Type Culture Collection (ATCC, Manassas, Va.) and culture media and supplements were supplied by ATCC and Invitrogen (Carlsbad, Calif.). The ATP assay was performed using […]-GLO Luminescent Cell Viability Assay Kit from Promega (Madison, Wis.) which allows ATP to be roughly quantified based on the […] emitted by the cells. Luminescence was recorded using VICTOR-22 1420 (Perkin Elmer, Waltham, Mass.).
(§4) Efficacy is the maximal inhibition of cell growth at the maximal concentration used in the studies. ND means the results were not determined.

[5] = tested on: SiHa; assay: In vitro growth inhibition, ATP assay ([…]-GLO); format: cell-based
Procedure: as §2, §3, §4

[6] = tested on: HT-3; assay: In vitro growth inhibition, ATP assay ([…]-GLO); format: cell-based
Procedure: as §2, §3, §4

[7] = tested on: ME-180; assay: In vitro growth inhibition, ATP assay ([…]-GLO); format: cell-based
Procedure: as §2, §3, §4

[8] = tested on: U937; assay: In vitro growth inhibition, ATP assay ([…]-GLO); format: cell-based
Procedure: as §2, §3, §4

[9] = tested on: HuT 78; assay: In vitro growth inhibition, ATP assay ([…]-GLO); format: cell-based
Procedure: as §2, §3, §4

[10] = tested on: SW403; assay: In vitro growth inhibition, ATP assay ([…]-GLO); format: cell-based
Procedure: as §2, §3, §4

[11] = tested on: SK-BR-3; assay: In vitro growth inhibition, ATP assay ([…]-GLO); format: cell-based
Procedure: as §2, §3, §4

[12] = tested on: A-427; assay: In vitro growth inhibition, ATP assay ([…]-GLO); format: cell-based
Procedure: as §2, §3, §4

[13] = tested on: T47D; assay: In vitro growth inhibition, ATP assay ([…]-GLO); format: cell-based
Procedure: as §2, §3, §4

[14] = tested on: SW48; assay: In vitro growth inhibition, cell counting; format: cell-based; settings: SW48, Colon, maximal inhibition at 1 μM
[15] = tested on: HL-60; assay: In vitro growth inhibition, [3H] thymidine incorporation; format: cell-based
Procedure: as §2, §3
(§5) The thymidine incorporation assay allows for specific detection of [^3H]-labeled thymidine (Perkin-Elmer) incorporated into newly synthesized DNA. Labeled cells were collected and their DNA was harvested on to a fiberglass filter using MLR24 Cell Harvester (Brandel, Geithersburg, Md.). The amount of incorporated [^3H] thymidine was determined by scintillation counting using Trilux-1450 Microbeta Counter (Perkin-Elmer).
as §4

[16] = tested on: H-82; assay: as above; format: cell-based
Procedure: as §2, §3, §5, §4

[17] = tested on: refractory malignancies (progressive, solid tumors); assay: Phase I/II study of IRX4204 in refractory malignancies; format: in vivo, Humans
Text: Data was collected for 18 patients with progressive, solid tumors.

[18] = target: T2, FXR/RXR (Homo sapiens, UniProt P19793); assay: Permissive heterodimer transactivation assay, CV-1 cells, 3x(IBABP/IRI)-tk-Luc; format: cell-based; settings: 20 hr; relative to GW4064
T2 construct: expressed in transfected cells; host or cells: CV-1
Text: as §1

[19] = target: Nurr1/RXR (Homo sapiens, UniProt P19793); assay: Permissive heterodimer transactivation assay, COS7 cells, 3xNBRE-tk-luc; format: cell-based; settings: Nurr-1 with RXRα
Text: as §1

[20] = tested on: H446; assay: In vitro growth inhibition, soft-agar; format: cell-based
Procedure: as §2, §3
(§6) The soft-agar coupled thymidine incorporation assay is used to determine the ability of cells to form colonies through invasion into agar matrix. A bottom feeder layer of cells was composed of 0.6% NUSIEVE GTG agarose (Cambrex, East Rutherford, N.J.), D-MEM with low glucose, 2 mM L-glutamine, and 15% charcoal/dextran-treated FBS. Test cells were seeded in the top soft-agar layer containing 0.3% NUSIEVE GTG agarose, D-MEM (low glucose), 2 mM L-glutamine, and 15% charcoal/dextran-treated FBS at a density of 10,000-20,000 cells per well. Test cells were labeled with [^3H] thymidine at 50 nM. Labeled cells were collected and counted as described above.
(§7) For the soft-agar colony formation assay, cells were cultured in 6-well plates containing two agar layers with growth medium. The bottom feeder layer contained 0.5% DIFCO Noble Agar (Becton Dickinson & Co., East Rutherford, N.J.), D-MEM with low glucose and 2 mM L-glutamine, and 15% charcoal/dextran-treated FBS. Test cells were seeded in the top soft-agar layer containing 0.3% agarose, D-MEM (low glucose), 2 mM L-glutamine, and 15% charcoal/dextran-treated FBS at a density of 10,000 cells per well. After treatment with drugs, cell colonies were counted under a light microscope.
as §4

[21] = tested on: T47D; assay: In vitro growth inhibition, soft-agar; format: cell-based
Procedure: as §2, §3, §6, §7, §4

[22] = target: RXRα (Homo sapiens, UniProt P19793); settings: CV-1 cells, 20 hours, luciferase
Procedure: To determine whether a RXR agonist can mediate its effects via RXRα receptor homodimers, RXRβ receptor homodimers, RXRγ receptor homodimers, or any combination thereof, or the corresponding RAR/RXR heterodimers, receptor-mediated transactivation assays were performed. For transactivation assays assessing RXR homodimer signaling, CV-1 cells were transfected with 1) an expression construct including a full length RXRα, RXRβ, or RXRγ; and 2) a rCRBPII/RXRE-tk-Luc reporter construct that included RXR homodimer-specific RXRE/DR1 responsive element linked to a luciferase gene. For transactivation assays assessing RAR/RXR heterodimer signaling, CV-1 cells were transfected with 1) an expression construct comprising a fusion protein including an estrogen receptor (ER) DNA binding domain linked to the ligand binding domain of RARα, RARβ, or RARγ and 2) a ERE-tk-Luc reporter construct that included an estrogen receptor responsive element linked to a luciferase gene. […] Data are mean values±SE from five independent experiments.

[23] = cited from earlier work
[24] = Homo sapiens, Breast ER-positive

T2 sequence (Q96RI1 whole entry partner): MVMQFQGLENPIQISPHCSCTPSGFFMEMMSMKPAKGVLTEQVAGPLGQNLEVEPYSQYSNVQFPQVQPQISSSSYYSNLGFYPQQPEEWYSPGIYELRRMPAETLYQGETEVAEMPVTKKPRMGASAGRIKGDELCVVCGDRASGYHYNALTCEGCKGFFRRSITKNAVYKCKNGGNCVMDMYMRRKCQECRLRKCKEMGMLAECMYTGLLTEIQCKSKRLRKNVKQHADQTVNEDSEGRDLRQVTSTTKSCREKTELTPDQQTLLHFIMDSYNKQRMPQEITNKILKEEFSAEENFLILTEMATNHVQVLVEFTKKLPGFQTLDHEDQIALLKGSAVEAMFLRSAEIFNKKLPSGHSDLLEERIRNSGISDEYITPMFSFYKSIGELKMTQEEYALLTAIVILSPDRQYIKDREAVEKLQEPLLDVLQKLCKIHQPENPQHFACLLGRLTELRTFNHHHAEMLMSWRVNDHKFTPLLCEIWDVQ
T2 sequence (P19793 whole entry): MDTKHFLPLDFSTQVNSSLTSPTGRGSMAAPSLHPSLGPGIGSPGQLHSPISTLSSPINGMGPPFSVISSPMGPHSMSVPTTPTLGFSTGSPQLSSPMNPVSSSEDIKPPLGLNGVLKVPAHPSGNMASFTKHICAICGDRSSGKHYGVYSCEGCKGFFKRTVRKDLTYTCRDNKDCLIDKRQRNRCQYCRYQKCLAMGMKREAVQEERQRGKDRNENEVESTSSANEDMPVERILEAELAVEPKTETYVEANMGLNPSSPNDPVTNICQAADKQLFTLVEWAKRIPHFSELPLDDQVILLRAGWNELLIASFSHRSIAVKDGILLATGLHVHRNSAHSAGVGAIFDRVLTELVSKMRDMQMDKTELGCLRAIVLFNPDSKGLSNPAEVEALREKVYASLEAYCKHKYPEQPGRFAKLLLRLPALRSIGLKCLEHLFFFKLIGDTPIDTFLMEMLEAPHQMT
Chain of Nurr1/RXR (P43354 whole entry partner): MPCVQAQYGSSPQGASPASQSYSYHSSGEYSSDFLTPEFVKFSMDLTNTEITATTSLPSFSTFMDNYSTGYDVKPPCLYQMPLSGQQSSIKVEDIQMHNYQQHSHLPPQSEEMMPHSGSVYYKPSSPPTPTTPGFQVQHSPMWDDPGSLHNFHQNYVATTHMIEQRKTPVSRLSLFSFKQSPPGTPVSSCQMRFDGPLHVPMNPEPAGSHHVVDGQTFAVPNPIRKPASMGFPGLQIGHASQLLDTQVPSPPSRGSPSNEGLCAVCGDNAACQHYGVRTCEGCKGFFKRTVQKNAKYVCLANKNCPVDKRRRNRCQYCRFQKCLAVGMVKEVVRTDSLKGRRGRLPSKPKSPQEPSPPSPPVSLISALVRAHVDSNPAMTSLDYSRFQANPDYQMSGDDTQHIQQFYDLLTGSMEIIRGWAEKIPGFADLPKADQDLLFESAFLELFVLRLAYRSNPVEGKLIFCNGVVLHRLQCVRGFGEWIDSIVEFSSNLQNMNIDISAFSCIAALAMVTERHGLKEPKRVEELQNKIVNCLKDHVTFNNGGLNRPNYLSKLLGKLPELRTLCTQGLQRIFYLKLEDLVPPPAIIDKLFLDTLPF
Chain of Nurr1/RXR (P19793 whole entry): as the sequence (P19793 whole entry) above
T1 sequence (P48443 whole entry): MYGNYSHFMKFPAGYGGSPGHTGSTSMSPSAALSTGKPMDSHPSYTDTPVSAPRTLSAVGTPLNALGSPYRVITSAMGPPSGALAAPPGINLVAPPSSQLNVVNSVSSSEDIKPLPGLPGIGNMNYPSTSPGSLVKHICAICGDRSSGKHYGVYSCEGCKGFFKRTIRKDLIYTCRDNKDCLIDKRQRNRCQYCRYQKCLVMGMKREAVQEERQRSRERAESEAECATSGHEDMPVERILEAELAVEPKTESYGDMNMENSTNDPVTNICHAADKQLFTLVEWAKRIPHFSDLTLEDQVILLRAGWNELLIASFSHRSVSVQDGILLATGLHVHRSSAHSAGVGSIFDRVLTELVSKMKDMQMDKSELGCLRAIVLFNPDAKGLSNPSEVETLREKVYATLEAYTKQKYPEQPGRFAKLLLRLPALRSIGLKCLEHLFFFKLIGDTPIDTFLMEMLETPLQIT
Chain of RXRα (P19793 whole entry, the tested form may be a part): as the sequence (P19793 whole entry) above

CC(/C=C/[C@@H]1C[C@]1(C)c1ccc2c(c1)C(C)(C)CCC2(C)C)=C\C(=O)O [IRX4204, 3,7-dimethyl-6(S),7(S)-methano,7-[1,1,4,4-tetramethyl-1,2,3,4-tetrahydronaphth-7-yl]2(E),4(E) heptadienoic acid]
Efficacy (% of 1 μM IRX4204) RXRγ [1]: 0.09 ± 0.01 100 % of 1 μM IRX4204
activation of LXRβ/RXR heterodimer [2]: not to transactivate; also recorded: does not activate
activation of LXRα/RXR heterodimer [3]: not to transactivate; also recorded: does not activate
IC50 ([4]; Homo sapiens, MCF7, MCF-7, Breast ER-positive, ATP): 52 nM
Efficacy (Conc.) ([4]; MCF-7, ATP, maximal inhibition at 1 μM): 52%
IC50 ([5]; Homo sapiens, Cervical): 47 nM
Efficacy (Conc.) ([5]; maximal inhibition at 1 μM): 41%
Efficacy (Conc.) ([6]; HT-3, ATP, maximal inhibition at 1 μM): 68%
IC50 ([6]; Homo sapiens, HT-3, Cervical, ATP): < 1000 nM
IC50 ([7]; Homo sapiens, ME-180, Cervical, ATP): 7 nM
Efficacy (Conc.) ([7]; ME-180, ATP, maximal inhibition at 1 μM): 80%
IC50 ([8]; Homo sapiens, U-937, U937, Leukemia, ATP): 0.73 nM
Efficacy (Conc.) ([8]; U937, ATP, maximal inhibition at 1 μM): 94%
IC50 ([9]; Homo sapiens, HuT78, HuT 78, Cutaneous T-Cell Lymphoma, ATP, 50% of maximal inhibition): 1.6 nM
Efficacy (Conc.) ([9]; HuT 78, ATP, maximal inhibition at 1 μM): 81%
IC50 ([10]; Homo sapiens, SW-403, SW403, Colon, ATP): 0.78 nM
Efficacy (Conc.) ([10]; SW403, ATP, maximal inhibition at 1 μM): 35%
IC50 ([11]; Homo sapiens, SK-BR-3, Breast ER-negative, ATP): 3 nM
Efficacy (Conc.) ([11]; SK-BR-3, ATP, maximal inhibition at 1 μM): 74%
Efficacy (Conc.) ([12]; A-427, ATP, maximal inhibition at 10 μM): 50%
IC50 ([12]; Homo sapiens, A-427, Non-Small Cell Lung Cancer, ATP): 7.7 nM
IC50 [13, 24]: 75 nM
Efficacy (Conc.) ([13]; maximal inhibition at 1 μM): 97%
Efficacy (Conc.) [14]: 60%
Efficacy (Conc.) ([15]; HL-60, thymidine incorporation, maximal inhibition at 1 μM): 94%
IC50 ([15]; Homo sapiens, HL-60, Leukemia, [H3] Thymidine Incorporation): 15 nM
Efficacy (Conc.) ([16]; H-82, thymidine incorporation, maximal inhibition at 1 μM): 72%
IC50 ([16]; Homo sapiens, NCI-H82, H-82, Small Cell Lung Cancer, [H3] Thymidine Incorporation): 3.6 nM
patients who did not exhibit tumor progression for at least four months ([17]; 18 patients with progressive, solid tumors, 9 patients): 50%
adverse events recorded ([17]; patients, once-daily oral 3, 6, 12, 24 mg/m^2, minimum four weeks): triglyceride elevation and hypothyroidism
serious adverse events related to IRX4204 ([17]; patients, once-daily oral 3, 6, 12, 24 mg/m^2, minimum four weeks, 18 patients): no serious adverse events considered possibly or probably related to IRX4204
activation of FXR/RXR heterodimer [18]: not to transactivate; also recorded: does not activate
activation of Nurr1/RXR permissive heterodimer [19]: selectively activates
Efficacy (Conc.) ([20]; H446, Soft-Agar, maximal inhibition at 1 μM): 44%
IC50 ([20]; Homo sapiens, NCI-H446, H446, Small Cell Lung Cancer, Soft-Agar): 17 nM
IC50 [21, 24]: 12.6 nM
Efficacy (Conc.) ([21]; maximal inhibition at 10 μM): 97%
Efficacy (% of 1 μM IRX4204) RXRα [22]: 100 % of 1 μM IRX4204

C=C(c1ccc(C(=O)O)cc1)c1cc2c(cc1C)C(C)(C)CCC2(C)C [bexarotene, 4-[1-(3,5,5,8,8-pentamethyl-6,7-dihydronaphthalen-2-yl)ethenyl]benzoic acid]
Cmax ([23]; dose of 400 mg/m^2/d, read-out: Cmax in the blood (estimated)): ~8 µM
Cmax ([23]; lower dose 225 mg/m^2/d, read-out: Cmax (estimated)): ~2 µM
